Assay results taken from patent US8569245B2, “Protease inhibitors, compositions and methods of use” (University of Florida Research Foundation, Inc., priority 2009, dated 2013).
Starred links: 1 amine or outer side, 2 acyl side, 3 side chain; linkers in the order of their positions; H or OH if unused. Non-standard residues stand in square brackets, D forms with d. Residues, ends and D or L forms follow the SMILES beside them. *: point of attachment. Sta = CC(C)C[C@H](N)[C@@H](O)CC(=O)O; X2 = CC(C)CC(N[*:1])C(O)CC(=O)[*:2]; NMe2Val = CC(C)[C@@H](C(=O)*)N(C)C; dNMeF = CN[C@H](Cc1ccccc1)C(=O)O; NMeF = CN[CH](Cc1ccccc1)C(=O)O; NMeQ = CN[CH](CCC(N)=O)C(=O)O; dHiv = CC(C)[C@@H](O)C(=O)O; Hiv = CC(C)[C@H](O)C(=O)O; Isovaleryl = CC(C)CC(=O)*; X1 = CCC(C)C(O)C(=O)*

Tests used:
[1] = test system: human peripheral blood mononuclear cells (PBMCs); experiment: Antigen-stimulated T cell proliferation in PBMCs (flow cytometry, CD3+ gate); assay type: cell-based; conditions: same experiment, PBMC
Method: PBMCs were isolated from buffy coats (leukopac, PBL) obtained from Lifesouth Community Blood Center (Gainesville, Fla., USA) by Ficoll-Hypaque density gradient centrifugation using Lymphoprep (Axis-Shield, Norway). Briefly, the contents of the buffy coat were diluted to three times its volume in sterile 1×PBS pH 7.4 (Gibco, California, USA). The dilution was layered onto the Lymphoprep in a 2:1 ratio. The sample was then centrifuged for 25 min at room temperature and 250 g. The PBMCs were collected at the interface, washed twice with PBS and centrifuged each time for 10 min at 4° C. and 250 g. Cell viability was assessed by trypan blue exclusion. […]
Experimental pelleted cells were incubated for 30 min at 4° C. with antibodies and washed with staining buffer (PBS+2% BSA+0.1% Na azide). […] Quantitation was carried out using FCS Express (version 3, De Novo Software, Los Angeles, Calif.) by gating for lymphocytes based on forward and side scatter properties followed by analysis of the percentages of positively stained quadrants. 50,000 cells were analyzed for each sample and isotype-specific immunoglobulin controls were run for each fluorochrome. […]

cathepsin E = target: T1, cathepsin E (Homo sapiens, UniProt P14091); experiment: Protease inhibition screen and dose-response assay; assay type: biochemical; conditions: 10 μM
T1 construct: Reaction Biology Corp. (ran the assay)
T1 sequence (P14091 54-396): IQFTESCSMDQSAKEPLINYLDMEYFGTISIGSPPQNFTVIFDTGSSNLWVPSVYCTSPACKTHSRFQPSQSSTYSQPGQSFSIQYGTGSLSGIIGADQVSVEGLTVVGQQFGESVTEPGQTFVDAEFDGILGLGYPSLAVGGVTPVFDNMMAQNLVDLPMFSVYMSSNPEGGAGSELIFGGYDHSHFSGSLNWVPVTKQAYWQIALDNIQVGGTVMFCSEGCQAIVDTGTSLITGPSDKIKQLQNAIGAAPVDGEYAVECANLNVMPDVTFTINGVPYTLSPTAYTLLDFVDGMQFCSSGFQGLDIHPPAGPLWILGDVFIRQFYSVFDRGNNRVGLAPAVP
Method: (§1) After incubation at room temperature for 10-15 min, the substrate was added, after which fluorescence at each relevant Ex/Em wavelength was measured every 5 min for 2 h. The substrate alone in the reaction buffer served as background. […] Each enzyme assay was performed in duplicate by Reaction Biology Corp. (Malvern, Pa.).
(§2) Assays were carried out by Reaction Biology Corp. (Malvern, Pa.). Enzyme activity (in %), calculated as above, was used to determine IC50 values with non-linear regression in GraphPad Prism (GraphPad Software, Inc., La Jolla, Calif.).

[2] = test system: TH cells induced by allogeneic activated DC; experiment: Allogeneic mixed lymphocyte reaction, DCs and TH cells from different donors; assay type: cell-based, human; conditions: allogeneic MLR
MCF7 cells [3] = experiment: Cellular uptake and inhibition of cellular cathepsins, treated cells then lysed, cathepsin D/E substrate; assay type: cell-based
Method: MCF7 cells were cultured in Dulbecco's Modified Eagle Medium (DMEM, Invitrogen) containing 10% fetal bovine serum (FBS, HyClone, Logan, Utah), in a humidified atmosphere containing 5% CO2 at 37° C. Briefly, MCF7 cells were seeded into 24-well plates. […] After 1 h incubation the medium was removed and the cells were trypsinized for 10 min, before being collected by centrifugation and lysed with NP-40 lysis buffer (1% NP-40, 50 mM NaOAc, pH 4.0). The lysate (50 μL) from each well was incubated at 37° C. with 10 μM Mca-[…]Dnp)-D-Arg-NH2 (the same substrate used for cathepsin D and E in other assays) in 50 mM NaOAc (pH 4.0, total volume 100 μL). The reaction was monitored by measuring the increase in fluorescence (λex=320 nm, λem=405 nm).
After this time, cells were washed, lysed and then the protease activity of the lysate was measured with a fluorogenic cathepsin D/E substrate (see FIG. 9A).

cathepsin D = target: T2, cathepsin D (Homo sapiens, UniProt P07339); assay type: biochemical; conditions: 10 μM
T2 construct: Reaction Biology Corp. (ran the assay)
Method: as §1, §2

MCF7 cells [4] = conditions: literature (Zaidi et al. 2007); cited from earlier work
[5] = Solubility in DMSO for dilution series; assay type: physicochemical

T2 sequence (P07339 65-412): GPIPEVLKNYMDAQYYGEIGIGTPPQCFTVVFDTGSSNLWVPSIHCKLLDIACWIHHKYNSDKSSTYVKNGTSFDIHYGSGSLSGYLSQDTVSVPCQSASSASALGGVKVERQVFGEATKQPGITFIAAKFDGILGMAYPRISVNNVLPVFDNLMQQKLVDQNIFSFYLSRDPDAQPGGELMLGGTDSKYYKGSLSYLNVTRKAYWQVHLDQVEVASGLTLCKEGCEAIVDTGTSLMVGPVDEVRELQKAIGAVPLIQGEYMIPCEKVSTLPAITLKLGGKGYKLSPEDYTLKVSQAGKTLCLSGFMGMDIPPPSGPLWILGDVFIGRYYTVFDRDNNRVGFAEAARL

COC(=O)[C@@H]1CCCN1C(=O)[C@@H](Cc1ccccc1)N(C)C(=O)[C@H](C)NC(=O)[C@@H](NC(=O)C[C@H](O)[C@H](CC(C)C)NC(=O)[C@H](CC(N)=O)NC(=O)[C@H](CC(C)C)NC(=O)[C@H](OC(=O)[C@@H](OC(=O)[C@H](C(C)C)N(C)C)C(C)C)C(C)C)[C@@H](C)O [Compound 1, grassystatin A] (NMe2Val-[Hiv][dHiv]LN[Sta]TA[dNMeF]P-OMe)
T cell viability [1]: unaffected
inhibitory activity in protease panel (cathepsin E): active
DC stimulated proliferation [2]: no effect
ability to enter cells (MCF7 cells [3]; MCF7 cells, inferred from cellular vs lysate IC50): more efficiently enter cells than pepstatin A
inhibitory activity in protease panel (cathepsin D): active

CC(C)CC(=O)N[C@H](C(=O)N[C@H](C(=O)N[C@@H](CC(C)C)[C@@H](O)CC(=O)N[C@@H](C)C(=O)N[C@@H](CC(C)C)[C@@H](O)CC(=O)O)C(C)C)C(C)C [pepstatin A, reference compound] (Isovaleryl-VV[Sta]A[Sta]-OH)
apparent IC50 in a cellular system (MCF7 cells [3]; MCF7 cells treated 1 h, lysate protease activity): fairly similar
cell permeability (MCF7 cells [4]): poor cell permeability

CCC(C)C(O)C(=O)NC(CC(C)C)C(=O)N(C)C(CCC(N)=O)C(=O)NC(CC(C)C)C(O)CC(=O)NC(C(=O)NCC(=O)N(C)C(Cc1ccccc1)C(=O)N1CCCC1C(=O)OC)C(C)CC (centres unmarked) [Compound 3, grassystatin C] (X1-L[NMeQ][X2]IG[NMeF]P-OMe; configuration not given here)
solubility in DMSO [5]: insoluble
